This is an account of results in paper PMC5785997, “2-Phenylquinazolinones as dual-activity tankyrase-kinase inhibitors” (Scientific Reports, 2018).

Molecules are shown by their SMILES.

One assay has as its target TNKS2 (Homo sapiens, UniProt Q9H2K2). Description: NAD+ quantification activity assay, TNKS2. The assay is classed as biochemical. To be noted: TNKS2 IC50, NAD+ 500 nM. The method, then:
The activity assay used to measure the potency of the compounds against TNKS2 is based on the quantification of NAD^+[38]. The reactions were carried out in 96-well plate (Greiner bio-one, U-shaped) and the conditions were the same as reported earlier (Table S5)[24].
The compounds were stored in 100% DMSO at −20 °C. All the compounds were diluted in the TNKS2 assay buffer (50 mM Bis-Tris Propane, 0.5 mM TCEP, 0.01% Triton-100x). Control reactions were used to exclude the effect of compound fluorescence and quenching from the calculations. […] The pIC50 values were calculated and fitted with nonlinear regression using 4-parameters with GraphPad Prism (version 5.0 for windows).
(§1) Protein (nM) NAD+ (nM) Incubation Buffer
(§2) Kinase [ATP] Substrate Incubation Reaction buffer

The target of the next assay is ARTD5/TNKS1 (Homo sapiens, UniProt O95271). The experiment in a line: NAD+ quantification activity assay, TNKS1. The assay is classed as biochemical. To be noted: NAD+ 500 nM. The method, then:
as §1, §2

The next assay concerns the target T1, ARTD3/PARP3 (Homo sapiens, UniProt Q9Y6F1).
T1 sequence (Q9Y6F1 1-533): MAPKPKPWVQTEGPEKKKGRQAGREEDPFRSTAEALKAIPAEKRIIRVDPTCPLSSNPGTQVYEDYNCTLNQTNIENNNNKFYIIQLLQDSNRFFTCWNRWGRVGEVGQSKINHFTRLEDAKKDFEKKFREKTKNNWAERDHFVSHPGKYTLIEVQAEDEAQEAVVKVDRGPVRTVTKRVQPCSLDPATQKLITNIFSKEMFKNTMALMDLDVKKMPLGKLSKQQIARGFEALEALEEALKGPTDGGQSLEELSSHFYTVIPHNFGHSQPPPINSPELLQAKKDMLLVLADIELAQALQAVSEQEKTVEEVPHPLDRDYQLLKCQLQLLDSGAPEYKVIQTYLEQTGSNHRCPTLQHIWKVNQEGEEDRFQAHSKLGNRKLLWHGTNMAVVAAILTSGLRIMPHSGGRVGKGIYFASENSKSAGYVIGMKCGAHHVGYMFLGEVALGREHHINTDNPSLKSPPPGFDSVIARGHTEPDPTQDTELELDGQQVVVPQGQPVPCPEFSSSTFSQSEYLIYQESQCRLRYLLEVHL
Description: ARTD profiling, ARTD3. To be noted: NAD+ 500 nM. Type of assay: biochemical. The protocol: as §1, §2

Assay [1] concerns Wnt/β-catenin signaling (TCF/LEF Reporter HEK293 Cell Line). Description: Wnt signaling TCF/LEF reporter assay in HEK293 cells. Type of assay: cell-based, human. To be noted: Homo sapiens; for inhibition at 2 µM: HEK293, 2 µM compound, Wnt-reporter cell assay, read-out: Wnt (Inh.%, 2 µM). The method, then: The Wnt assay was performed using a procedure modified from the BPS Bioscience protocol. Details are given in the Supplementary Methods. […]
The Wnt Signaling Pathway TCF/LEF Reporter HEK293 Cell Line (BPS Bioscience, catalog […]
Reporter HEK293 cells were grown at 37 °C with 5% CO2 using Dulbecco's Modified Eagle's Medium (DMEM, Sigma), supplemented with 10% of fetal bovine serum (Lonza), 1% non-essential amino acid (Sigma), 1X of penicillin and streptomycin (Sigma), and 400 µg/ml of Geneticin (Roche). Wnt-3a and L cells (ATCC) were cultured in Dulbecco’s modified Eagle’s medium supplemented with 10% fetal bovine serum, penicillin and streptomycin at 37 °C in a 5%
CO2. Wnt3a and control conditioned medium preparation has been described previously1. The Wnt assay was performed using a procedure modified from the BPS Bioscience protocol. 30,000 HEK293 cells/well in 40 µl of serum-free DMEM were plated on 96-well plate (white wells, clear […]
bottom, PerkinElmer). 10 µl of 50 mM LiCl in serum-free DMEM with 5x concentration of DMSO or tankyrase inhibitors was added. After 16 hours of incubation, 25 µl of Wnt3a or control conditioned medium supplemented with DMSO or tankyrase inhibitors was added on cells and cells were incubated for additional 24 hours. After the second incubation, the 96-well plates were balanced in room temperature for 30 minutes. Wnt3a induced luciferase activity was determined using ONE-Glo Luciferase Assay System (Promega) according to manufacturer’s protocol. […]
Difference Fourier method deriving the starting phases from 3U9H. The refinement of the structures was done with REFMAC5.5,6 Final manual building, analysis and visualization of the structures were made with Coot7 and PyMOL (www.pymol.org). All chemical structures were drawn with Marvin (Marvin 5.7.0 2011, ChemAxon, http://www.chemaxon.com). The docking studies were performed using GOLD software.8
A general note: Reporter assays use an easily measured gene product as a stand-in for the process of interest.

The target in the next assay is ARTD1/PARP1 (Homo sapiens, UniProt P09874). The experiment in a line: ARTD profiling, ARTD1.
In a further assay the target is ARTD2/PARP2 (Homo sapiens, UniProt Q9UGN5). Description: ARTD profiling, ARTD2.
A further assay has as its target T2, ARTD4/PARP4 (Homo sapiens, UniProt Q9UKK3).
T2 sequence (Q9UKK3 369-573 limits assumed): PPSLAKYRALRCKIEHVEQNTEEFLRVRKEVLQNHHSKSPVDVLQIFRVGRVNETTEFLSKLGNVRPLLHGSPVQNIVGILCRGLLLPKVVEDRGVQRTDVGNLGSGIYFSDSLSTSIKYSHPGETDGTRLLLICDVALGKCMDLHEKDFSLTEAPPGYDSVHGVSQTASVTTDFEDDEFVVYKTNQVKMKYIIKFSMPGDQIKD
The experiment in a line: ARTD profiling, ARTD4.

In another assay the target is T3, ARTD7/PARP15 (Homo sapiens, UniProt Q460N3).
T3 sequence (Q460N3 482-678 limits assumed): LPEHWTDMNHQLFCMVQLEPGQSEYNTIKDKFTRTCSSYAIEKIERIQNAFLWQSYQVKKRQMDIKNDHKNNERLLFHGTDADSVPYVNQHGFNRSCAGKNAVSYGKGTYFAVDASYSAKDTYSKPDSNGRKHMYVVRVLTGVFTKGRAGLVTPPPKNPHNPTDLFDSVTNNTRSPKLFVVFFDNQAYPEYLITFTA
Description: ARTD profiling, ARTD7.

The next assay has as its target ARTD8/PARP14 (Homo sapiens, UniProt Q460N5). Description: ARTD profiling, ARTD8.
A further assay has as its target T4, ARTD10/PARP10 (Homo sapiens, UniProt Q53GL7).
T4 sequence (Q53GL7 806-1025 limits assumed): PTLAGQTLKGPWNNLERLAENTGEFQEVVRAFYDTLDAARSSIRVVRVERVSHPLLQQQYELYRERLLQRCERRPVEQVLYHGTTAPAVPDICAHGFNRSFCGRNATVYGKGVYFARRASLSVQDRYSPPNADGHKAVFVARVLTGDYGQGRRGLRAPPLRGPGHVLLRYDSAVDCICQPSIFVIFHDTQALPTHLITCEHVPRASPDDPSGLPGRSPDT
Description: ARTD profiling, ARTD10.

The target in another assay is T5, ARTD12/PARP12 (Homo sapiens, UniProt Q9H0J9).
T5 sequence (Q9H0J9 484-698 limits assumed): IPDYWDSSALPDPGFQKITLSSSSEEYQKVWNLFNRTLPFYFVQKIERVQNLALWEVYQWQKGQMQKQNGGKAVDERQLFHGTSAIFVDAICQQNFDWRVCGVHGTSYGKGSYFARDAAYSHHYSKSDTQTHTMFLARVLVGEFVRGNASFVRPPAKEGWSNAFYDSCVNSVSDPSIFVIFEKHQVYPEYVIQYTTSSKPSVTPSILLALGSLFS
The experiment in a line: ARTD profiling, ARTD12.

A further assay has as its target T6, ARTD15/PARP16 (Homo sapiens, UniProt Q8N5Y8).
T6 sequence (Q8N5Y8 1-322): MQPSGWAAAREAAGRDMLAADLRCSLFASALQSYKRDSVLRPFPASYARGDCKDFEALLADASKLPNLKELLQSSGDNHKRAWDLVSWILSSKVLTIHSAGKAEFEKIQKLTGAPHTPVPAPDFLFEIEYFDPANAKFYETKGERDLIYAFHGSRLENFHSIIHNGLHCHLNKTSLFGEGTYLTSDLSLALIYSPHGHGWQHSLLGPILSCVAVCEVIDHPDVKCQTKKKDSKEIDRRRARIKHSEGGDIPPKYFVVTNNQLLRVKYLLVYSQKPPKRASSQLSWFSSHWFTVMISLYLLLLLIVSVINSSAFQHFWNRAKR
Description: ARTD profiling, ARTD15.

On the set-up of assay [2]: method as in PMID 24130191. The settings on record: previous study; read-out: IC50 in cell-based assay; cited from earlier work.

Chain of TNKS2 (Q9H2K2 959-1164): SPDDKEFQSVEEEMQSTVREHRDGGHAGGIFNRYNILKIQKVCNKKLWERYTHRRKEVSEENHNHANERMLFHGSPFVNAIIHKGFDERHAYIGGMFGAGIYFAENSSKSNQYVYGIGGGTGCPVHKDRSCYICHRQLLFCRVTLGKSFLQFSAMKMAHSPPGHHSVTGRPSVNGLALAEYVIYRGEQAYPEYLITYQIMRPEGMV
Chain of ARTD2/PARP2 (Q9UGN5 whole entry): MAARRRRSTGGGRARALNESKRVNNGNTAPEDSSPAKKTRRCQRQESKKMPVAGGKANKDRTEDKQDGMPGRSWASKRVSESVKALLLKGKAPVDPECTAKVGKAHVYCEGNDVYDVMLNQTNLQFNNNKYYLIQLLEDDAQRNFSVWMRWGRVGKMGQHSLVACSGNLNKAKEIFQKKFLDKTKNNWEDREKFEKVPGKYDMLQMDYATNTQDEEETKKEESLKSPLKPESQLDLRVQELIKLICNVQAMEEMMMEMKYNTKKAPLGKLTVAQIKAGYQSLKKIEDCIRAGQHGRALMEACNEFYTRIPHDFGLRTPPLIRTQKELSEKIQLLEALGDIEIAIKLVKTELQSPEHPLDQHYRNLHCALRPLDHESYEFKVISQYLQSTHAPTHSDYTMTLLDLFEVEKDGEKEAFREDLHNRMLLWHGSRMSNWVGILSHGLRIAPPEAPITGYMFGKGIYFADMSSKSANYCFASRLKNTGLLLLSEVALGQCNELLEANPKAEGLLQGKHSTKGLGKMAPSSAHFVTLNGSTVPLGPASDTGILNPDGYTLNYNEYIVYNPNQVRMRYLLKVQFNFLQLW
Chain of ARTD1/PARP1 (P09874 whole entry): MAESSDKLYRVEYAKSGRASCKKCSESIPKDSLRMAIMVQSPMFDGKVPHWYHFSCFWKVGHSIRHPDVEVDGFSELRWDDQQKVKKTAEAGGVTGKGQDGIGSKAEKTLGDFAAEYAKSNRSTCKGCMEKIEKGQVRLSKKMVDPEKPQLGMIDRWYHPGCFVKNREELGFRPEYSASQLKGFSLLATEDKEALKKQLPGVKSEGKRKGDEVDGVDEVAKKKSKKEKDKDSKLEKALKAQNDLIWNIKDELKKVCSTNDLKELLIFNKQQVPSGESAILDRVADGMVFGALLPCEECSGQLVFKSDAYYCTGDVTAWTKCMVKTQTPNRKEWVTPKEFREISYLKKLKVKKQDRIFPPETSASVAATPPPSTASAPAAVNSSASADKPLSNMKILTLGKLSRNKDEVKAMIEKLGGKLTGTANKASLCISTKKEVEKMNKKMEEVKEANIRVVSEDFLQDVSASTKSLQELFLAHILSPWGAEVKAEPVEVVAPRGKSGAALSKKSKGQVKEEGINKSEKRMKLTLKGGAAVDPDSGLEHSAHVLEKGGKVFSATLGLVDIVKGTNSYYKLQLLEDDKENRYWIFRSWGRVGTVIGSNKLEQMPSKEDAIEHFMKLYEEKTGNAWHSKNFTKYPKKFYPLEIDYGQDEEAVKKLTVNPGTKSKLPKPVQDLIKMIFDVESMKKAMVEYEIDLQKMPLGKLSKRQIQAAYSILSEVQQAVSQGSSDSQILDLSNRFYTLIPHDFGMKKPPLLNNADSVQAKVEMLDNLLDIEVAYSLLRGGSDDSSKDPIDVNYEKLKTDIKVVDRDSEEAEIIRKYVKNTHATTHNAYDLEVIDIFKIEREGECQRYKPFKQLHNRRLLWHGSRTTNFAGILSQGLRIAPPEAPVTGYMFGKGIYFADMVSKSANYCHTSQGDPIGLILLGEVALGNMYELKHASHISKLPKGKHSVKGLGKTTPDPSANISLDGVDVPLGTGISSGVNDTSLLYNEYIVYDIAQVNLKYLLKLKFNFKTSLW
Chain of ARTD5/TNKS1 (O95271 1112-1317): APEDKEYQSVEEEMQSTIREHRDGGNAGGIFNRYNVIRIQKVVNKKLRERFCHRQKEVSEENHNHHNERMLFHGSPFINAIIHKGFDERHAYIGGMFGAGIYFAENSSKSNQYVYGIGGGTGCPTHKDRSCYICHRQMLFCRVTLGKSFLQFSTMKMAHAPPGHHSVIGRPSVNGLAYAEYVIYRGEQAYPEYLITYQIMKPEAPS
Chain of ARTD8/PARP14 (Q460N5 whole entry): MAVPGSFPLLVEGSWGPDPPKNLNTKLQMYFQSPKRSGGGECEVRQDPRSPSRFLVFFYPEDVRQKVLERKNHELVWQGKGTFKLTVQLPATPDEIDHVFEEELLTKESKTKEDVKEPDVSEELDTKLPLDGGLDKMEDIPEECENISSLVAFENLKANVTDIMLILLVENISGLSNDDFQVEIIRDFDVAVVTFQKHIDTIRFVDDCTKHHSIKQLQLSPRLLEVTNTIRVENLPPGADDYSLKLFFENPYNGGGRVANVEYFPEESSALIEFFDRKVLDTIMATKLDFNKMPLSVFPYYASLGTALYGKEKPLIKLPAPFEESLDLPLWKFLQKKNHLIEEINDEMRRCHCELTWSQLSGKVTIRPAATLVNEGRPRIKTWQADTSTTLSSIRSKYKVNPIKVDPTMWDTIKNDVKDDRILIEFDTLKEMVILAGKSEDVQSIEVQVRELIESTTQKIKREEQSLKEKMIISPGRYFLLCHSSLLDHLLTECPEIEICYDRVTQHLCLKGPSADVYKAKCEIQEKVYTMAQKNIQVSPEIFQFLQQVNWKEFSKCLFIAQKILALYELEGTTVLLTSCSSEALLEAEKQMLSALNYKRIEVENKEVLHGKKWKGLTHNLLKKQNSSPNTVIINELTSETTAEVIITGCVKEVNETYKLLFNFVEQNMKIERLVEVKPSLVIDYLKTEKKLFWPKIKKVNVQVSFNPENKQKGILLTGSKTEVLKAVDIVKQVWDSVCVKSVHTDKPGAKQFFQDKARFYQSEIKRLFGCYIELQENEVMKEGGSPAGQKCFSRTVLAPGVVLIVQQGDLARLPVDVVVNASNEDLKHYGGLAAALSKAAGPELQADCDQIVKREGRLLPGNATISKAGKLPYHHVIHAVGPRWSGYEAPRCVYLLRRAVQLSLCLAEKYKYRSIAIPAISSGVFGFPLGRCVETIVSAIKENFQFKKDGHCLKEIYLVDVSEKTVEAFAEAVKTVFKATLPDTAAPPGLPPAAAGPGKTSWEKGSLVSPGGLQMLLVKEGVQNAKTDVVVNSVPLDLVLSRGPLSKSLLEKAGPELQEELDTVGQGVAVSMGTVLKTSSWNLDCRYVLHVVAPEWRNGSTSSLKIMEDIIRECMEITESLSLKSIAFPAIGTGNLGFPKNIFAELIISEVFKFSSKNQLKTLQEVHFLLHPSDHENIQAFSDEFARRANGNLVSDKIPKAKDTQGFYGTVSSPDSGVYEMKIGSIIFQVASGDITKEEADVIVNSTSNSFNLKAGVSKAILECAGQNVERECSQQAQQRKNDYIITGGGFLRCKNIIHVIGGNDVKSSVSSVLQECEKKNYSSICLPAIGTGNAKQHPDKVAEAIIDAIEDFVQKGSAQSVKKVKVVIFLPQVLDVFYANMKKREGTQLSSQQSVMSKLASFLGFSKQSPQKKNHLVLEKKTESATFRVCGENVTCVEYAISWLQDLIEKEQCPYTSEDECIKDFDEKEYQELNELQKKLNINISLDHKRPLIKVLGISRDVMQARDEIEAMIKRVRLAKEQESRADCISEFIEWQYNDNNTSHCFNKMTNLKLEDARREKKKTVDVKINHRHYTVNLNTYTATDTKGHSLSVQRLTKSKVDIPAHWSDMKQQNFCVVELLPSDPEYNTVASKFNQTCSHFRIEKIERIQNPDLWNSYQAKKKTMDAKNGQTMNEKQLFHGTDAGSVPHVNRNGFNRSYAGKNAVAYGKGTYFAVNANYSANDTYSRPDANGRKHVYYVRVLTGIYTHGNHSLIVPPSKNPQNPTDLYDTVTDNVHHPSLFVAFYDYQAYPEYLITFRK

One may read the IC50 as the concentration that inhibits the measured activity by half. `CN(CCO)c1ccc(-c2nc3ccccc3c(=O)[nH]2)cc1` [Compound 33]: the IC50 at TNKS2 came out at 0.016 µM; against ARTD5/TNKS1, 0.077 µM; against ARTD3/PARP3, 3.8 µM; against ARTD1/PARP1 it was 1.7 µM; at ARTD2/PARP2, 0.86 µM; at ARTD4/PARP4, 2 µM. Also, the IC50 was over 10 µM against ARTD7/PARP15; 3.2 µM at ARTD8/PARP14; 3.1 µM at ARTD10/PARP10; over 10 µM on ARTD12/PARP12; over 10 µM against ARTD15/PARP16. This compound also displayed an inhibition at 1 µM in assay [1] (HEK293, 1 µM compound, TCF/LEF reporter HEK293) of 20%.
On to `CC1(c2ccc(-c3nc4ccccc4c(=O)[nH]3)cc2)NC(=O)NC1=O` (centres unmarked) [Compound 2], for which the IC50 at TNKS2 is 0.0033 µM; at ARTD5/TNKS1 it was 0.0059 µM; in assay [2], about 1 µM; against ARTD1/PARP1, 0.374 µM; against ARTD2/PARP2 it was 0.34 µM. The inhibition at 2 µM in assay [1] was 68%.
`CC1(c2ccc(-c3nc4ccccc4c(=O)[nH]3)cc2)CNC(=O)N1` (centres unmarked) [Compound 9]: the IC50 against TNKS2 is 0.01 µM; against ARTD5/TNKS1, 0.01 µM; against ARTD1/PARP1, 1 µM; at ARTD2/PARP2, 0.87 µM. In addition, the inhibition at 2 µM in assay [1] was found to be 72%.
